Results as given in ChEMBL document CHEMBL4680246, “Design, synthesis and biological evaluation of novel O-carbamoyl ferulamide derivatives as multi-target-directed ligands for the treatment of Alzheimer's disease” (Eur J Med Chem, 2020).
pIC50: −log10 of the molar value. Calls of active or inactive are those of the source. The rule behind the calls is not given here.

Tests used:
[1] = Toxicity in AlCl3-induced Zebrafish model of Alzheimer's disease assessed as mortality at 1 ug/ml relative to control; design: species or system Danio rerio; settings: in vivo, at 1 µg/mL
[2] = Toxicity in Zebrafish assessed as mortality at 3.125 ug/ml relative to control; design: species or system Danio rerio; settings: in vivo, at 3.125 µg/mL
Danio rerio [3] = organism: Danio rerio; assay: Protection against amyloid beta (1 to 42)-induced zebrafish model of vascular injury assessed as vascular injury rate at […] (reference value: 73.3%); type: functional; settings: dose 0.11 µg/ml
[4] = Toxicity in Zebrafish assessed as small or misshapen jaw at 6.25 ug/ml relative to control; design: species or system Danio rerio; settings: in vivo, at 6.25 µg/mL
[5] = Toxicity in Zebrafish assessed as pericardial edema at 6.25 ug/ml relative to control; design: species or system Danio rerio; settings: in vivo, at 6.25 µg/mL
[6] = Acute toxicity in Kunming mouse assessed as decrease in autonomic activity at 250 to 1000 mg/kg; type: organism-based; settings: in vivo, dose 250-1000 mg/kg
[7] = Effect on tau protein level in mouse HT22 cells transfected with pRK5-GFP-Tau P301L plasmid assessed as fluorescence intensity at 5 uM by fluorescence microscopy (reference value: 33.6); type: functional, HT-22
HT-22 [8] = assay: Effect on tau protein level in mouse HT22 cells transfected with pRK5-GFP-Tau P301L plasmid assessed as reduction in fluorescence intensity by fluorescence microscopy; type: functional, cell-based
Cholinesterase = Cholinesterase (Homo sapiens, UniProt P06276); assay: Inhibition of human serum BuChE using acetylcholine iodide as substrate incubated for 15 mins by Ellman's method
[9] = Effect on APP protein level in mouse HT22 cells transfected with pEGFP-N1-APP plasmid assessed as fluorescence intensity at 5 uM by fluorescence microscopy (reference value: 33.2); type: functional, HT-22
[10] = Acute toxicity in Kunming mouse assessed as damage in liver at 50 to 1000 mg/kg measured after 7 days; type: organism-based; settings: in vivo, 168 h, dose 50-1000 mg/kg, time 7 day
SH-SY5Y [11] = assay: Neuroprotective activity against amyloid beta (1 to 42)-induced cytotoxicity in human SH-SY5Y cells assessed as cell viability at 1 uM by MTT assay (reference value: 50.3%); type: functional; settings: read-out: Activity
SH-SY5Y [12] = assay: Neuroprotective activity against amyloid beta (1 to 42)-induced cytotoxicity in human SH-SY5Y cells assessed as cell viability at 10 uM by MTT assay (reference value: 50.3%); type: functional; settings: read-out: Activity
Danio rerio [13] = organism: Danio rerio; assay: Antialzheimer activity in AlCl3-induced Zebrafish model of Alzheimer's disease assessed as change in motility speed at 0.33 ug/ml (reference value: 1.08 mm/s); type: functional; settings: dose 0.33 µg/ml
Homo sapiens = organism: Homo sapiens; assay: Selectivity index, ratio of IC50 for recombinant human MAO-A to IC50 for recombinant human MAO-B
[14] = Effect on APP protein level in mouse HT22 cells transfected with pEGFP-N1-APP plasmid assessed as fluorescence intensity at 20 uM by fluorescence microscopy (reference value: 33.2); type: functional, HT-22
Danio rerio [15] = organism: Danio rerio; assay: Protection against amyloid beta (1 to 42)-induced zebrafish model of vascular injury assessed as reduction in vascular injury at […] relative to control; type: functional; settings: dose 0.11 µg/ml
[16] = Permeability of compound by PAMPA-BBB assay; type: ADME; settings: read-out: permeability
[17] = Acute toxicity in Kunming mouse assessed as dyspnea at 250 to 1000 mg/kg; type: organism-based; settings: in vivo, dose 250-1000 mg/kg
Danio rerio [18] = organism: Danio rerio; assay: Protection against amyloid beta (1 to 42)-induced zebrafish model of vascular injury assessed as reduction in vascular injury at 0.33 ug/ml relative to control; type: functional; settings: dose 0.33 µg/ml
[19] = Toxicity in Zebrafish assessed as mortality at 50 ug/ml relative to control; design: species or system Danio rerio; settings: in vivo, at 50 µg/mL
SH-SY5Y [20] = assay: Cytotoxicity against human SH-SY5Y cells up to 50 uM by MTT assay; type: cell-based
[21] = Effect on tau protein level in mouse HT22 cells transfected with pRK5-GFP-Tau plasmid assessed as fluorescence intensity at 20 uM by fluorescence microscopy (Rvb <= 40.9); type: functional, HT-22
[22] = Effect on tau protein level in mouse HT22 cells transfected with pRK5-GFP-Tau plasmid assessed as fluorescence intensity at 5 uM by fluorescence microscopy (Rvb <= 40.9); type: functional, HT-22
[23] = Toxicity in Zebrafish assessed as mortality at 6.25 ug/ml relative to control; design: species or system Danio rerio; settings: in vivo, at 6.25 µg/mL
L02 = assay: Cytotoxicity against human LO2 cells assessed as reduction in cell viability at 25 uM by MTT assay; type: cell-based; settings: l02, 25 µM
[24] = Effect on APP protein level in mouse HT22 cells transfected with pEGFP-N1-APP plasmid assessed as fluorescence intensity at 10 uM by fluorescence microscopy (reference value: 33.2); type: functional, HT-22
Mus musculus [25] = assay: Improvement in brain cholinergic activity in scopolamine-induced mouse model of amnesia assessed as change in AChE vitality at 6 mg/kg (reference value: 0.105 U/mg); type: functional
HT-22 [26] = assay: Effect on APP protein level in mouse HT22 cells transfected with pEGFP-N1-APP plasmid assessed as reduction in fluorescence intensity by fluorescence microscopy; type: functional, cell-based
Acetylcholinesterase = Acetylcholinesterase (Electrophorus electricus, UniProt O42275); assay: Inhibition of Electrophorus electricus AChE using acetylcholine iodide as substrate incubated for 15 mins by Ellman's method
[27] = Toxicity in Zebrafish assessed as death at 6.25 ug/ml relative to control; design: species or system Danio rerio; settings: in vivo, at 6.25 µg/mL, read-out: Activity
Danio rerio [28] = organism: Danio rerio; assay: Antialzheimer activity in AlCl3-induced Zebrafish model of Alzheimer's disease assessed as change in motility speed at 1 ug/ml (reference value: 1.08 mm/s); type: functional; settings: dose 1 µg/ml
[29] = Acute toxicity in Kunming mouse assessed as damage in spleen at 50 to 1000 mg/kg measured after 7 days; type: organism-based; settings: in vivo, 168 h, dose 50-1000 mg/kg, time 7 day
[30] = Acute toxicity in Kunming mouse assessed as piloerection at 250 to 1000 mg/kg measured after 4 hrs; type: organism-based; settings: in vivo, dose 250-1000 mg/kg
[31] = Toxicity in Zebrafish assessed as change in body shape at 6.25 ug/ml relative to control; design: species or system Danio rerio; settings: in vivo, at 6.25 µg/mL
Danio rerio [32] = organism: Danio rerio; assay: Protection against amyloid beta (1 to 42)-induced zebrafish model of vascular injury assessed as reduction in vascular injury at 1 ug/ml relative to control; type: functional; settings: dose 1 µg/ml
[33] = biological target: Amyloid-beta precursor protein (Homo sapiens) (UniProt P05067); assay: Disaggregation of self-induced amyloid beta (1 to 42) (unknown origin) preformed fibrils at 25 uM measured after 24 hrs by thioflavin-T fluorescence assay relative to control
Mus musculus [34] = assay: Improvement in brain cholinergic activity in scopolamine-induced mouse model of amnesia assessed as reduction in AChE vitality at 5 to 10 mg/kg; type: functional, organism-based; settings: dose 5-10 mg/kg
[35] = Toxicity in AlCl3-induced Zebrafish model of Alzheimer's disease assessed as mortality at 100 ug/ml relative to control; design: species or system Danio rerio; settings: in vivo, at 100 µg/mL
[36] = Toxicity in AlCl3-induced Zebrafish model of Alzheimer's disease assessed as mortality at 5 ug/ml relative to control; design: species or system Danio rerio; settings: in vivo, at 5 µg/mL

Sequence of Cholinesterase (P06276 whole entry): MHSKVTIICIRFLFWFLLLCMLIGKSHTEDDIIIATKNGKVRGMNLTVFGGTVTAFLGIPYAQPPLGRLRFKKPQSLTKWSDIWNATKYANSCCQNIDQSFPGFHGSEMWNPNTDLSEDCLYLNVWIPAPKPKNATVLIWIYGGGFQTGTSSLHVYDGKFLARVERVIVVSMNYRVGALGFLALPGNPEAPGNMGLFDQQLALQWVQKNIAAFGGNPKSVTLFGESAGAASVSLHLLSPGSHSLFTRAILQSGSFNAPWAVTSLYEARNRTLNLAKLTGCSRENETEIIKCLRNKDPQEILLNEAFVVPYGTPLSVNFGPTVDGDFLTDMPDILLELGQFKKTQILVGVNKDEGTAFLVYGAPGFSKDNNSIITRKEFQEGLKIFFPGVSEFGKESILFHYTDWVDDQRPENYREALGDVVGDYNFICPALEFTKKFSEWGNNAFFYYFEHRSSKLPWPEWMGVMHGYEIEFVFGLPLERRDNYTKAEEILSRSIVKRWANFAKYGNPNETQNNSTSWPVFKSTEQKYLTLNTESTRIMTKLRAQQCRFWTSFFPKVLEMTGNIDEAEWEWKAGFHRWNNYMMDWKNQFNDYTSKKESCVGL
Sequence of Acetylcholinesterase (O42275 whole entry): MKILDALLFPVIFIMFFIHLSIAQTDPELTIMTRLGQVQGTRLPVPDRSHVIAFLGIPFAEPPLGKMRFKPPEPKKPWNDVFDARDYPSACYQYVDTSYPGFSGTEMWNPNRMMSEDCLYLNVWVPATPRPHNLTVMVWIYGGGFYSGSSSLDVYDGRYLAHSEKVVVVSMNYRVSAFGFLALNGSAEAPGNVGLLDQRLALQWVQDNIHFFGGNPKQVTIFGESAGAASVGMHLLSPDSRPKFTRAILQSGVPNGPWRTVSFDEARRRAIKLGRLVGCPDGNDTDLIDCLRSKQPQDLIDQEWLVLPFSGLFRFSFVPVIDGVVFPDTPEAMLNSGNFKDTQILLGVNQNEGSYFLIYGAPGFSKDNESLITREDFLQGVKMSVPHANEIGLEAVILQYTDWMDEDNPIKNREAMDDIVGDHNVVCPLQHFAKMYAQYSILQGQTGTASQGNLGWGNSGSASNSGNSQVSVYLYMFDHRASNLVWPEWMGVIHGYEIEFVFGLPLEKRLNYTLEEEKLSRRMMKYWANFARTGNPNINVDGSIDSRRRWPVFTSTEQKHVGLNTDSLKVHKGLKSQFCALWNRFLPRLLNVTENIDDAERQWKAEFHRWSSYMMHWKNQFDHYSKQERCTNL
Sequence of Amyloid-beta precursor protein (Homo sapiens) (P05067 whole entry): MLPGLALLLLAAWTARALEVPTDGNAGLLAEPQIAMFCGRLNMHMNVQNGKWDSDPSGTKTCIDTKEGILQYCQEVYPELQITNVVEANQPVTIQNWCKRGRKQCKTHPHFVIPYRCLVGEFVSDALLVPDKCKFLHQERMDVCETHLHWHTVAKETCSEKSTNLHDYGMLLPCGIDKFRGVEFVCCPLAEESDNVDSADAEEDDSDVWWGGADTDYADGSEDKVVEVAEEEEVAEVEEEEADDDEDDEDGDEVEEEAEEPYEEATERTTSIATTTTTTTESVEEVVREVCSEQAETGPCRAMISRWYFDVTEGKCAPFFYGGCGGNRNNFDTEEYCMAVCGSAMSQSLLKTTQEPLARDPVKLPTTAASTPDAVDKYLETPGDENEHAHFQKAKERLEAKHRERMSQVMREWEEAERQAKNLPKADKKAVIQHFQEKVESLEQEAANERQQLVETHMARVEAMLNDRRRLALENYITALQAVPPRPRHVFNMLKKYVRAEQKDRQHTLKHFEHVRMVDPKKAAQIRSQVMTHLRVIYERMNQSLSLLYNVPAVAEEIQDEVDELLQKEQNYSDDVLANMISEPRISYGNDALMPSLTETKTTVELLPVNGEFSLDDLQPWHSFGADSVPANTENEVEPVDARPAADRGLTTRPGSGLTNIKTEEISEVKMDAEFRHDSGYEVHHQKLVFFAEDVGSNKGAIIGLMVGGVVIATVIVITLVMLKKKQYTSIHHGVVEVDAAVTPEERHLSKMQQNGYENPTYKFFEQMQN

**Q.** Which results are given for `CCN(C)C(=O)Oc1ccc(/C=C/C(=O)N2CCc3ccccc3C2)cc1OC`?
**A.** mortality at 1 ug/ml [1]: 0%; mortality at 3.125 ug/ml [2]: 0%; Activity (Danio rerio [3]): 80%; Activity [4]: 33.3%; Activity [5]: 46.7%; Activity [6]: Toxic; Flu intensity [7]: 23.9; Activity (HT-22 [8]): Dose-dependent effect; pIC50 (Cholinesterase): 6.01; Flu intensity [9]: 13.6; Activity [10]: Non-Toxic; viability at 1 µM (SH-SY5Y [11]): 68.1%; viability at 10 µM (SH-SY5Y [12]): 83.8%; Activity (Danio rerio [13]): 2.06 millimeter/sec; Ratio IC50 (Homo sapiens): 3; Flu intensity [14]: 14.9; Efficacy (Danio rerio [15]): -9.1%; Papp [16]: 21.4 ×10⁻⁶ cm/s; Activity [17]: Toxic; Efficacy (Danio rerio [18]): 9%; mortality at 50 ug/ml [19]: 100%; Activity (SH-SY5Y [20]): Non-Toxic; Flu intensity [21]: 29.2; Flu intensity [22]: 32.6; mortality at 6.25 ug/ml [23]: 6.7%; Activity (L02): Non-Toxic; Flu intensity [24]: 13.3; Activity (Mus musculus [25]): 0.098 U/mg; Activity (HT-22 [26]): Dose-dependent effect; pIC50 (Acetylcholinesterase): 4.95; mortality at 6.25 ug/ml [27]: 13.3%; Activity (Danio rerio [28]): 2.15 millimeter/sec; Activity [29]: Non-Toxic; Activity [30]: Non-Toxic; Activity [31]: 53.3%; Efficacy (Danio rerio [32]): 27.3%; Activity [33]: 43.3%; Activity (Mus musculus [34]): Active; mortality at 100 ug/ml [35]: 100%; mortality at 5 ug/ml [36]: 0%
